For one experiment, the target named is Tyro3 (Homo sapiens (Human), UniProt Q06418). The experiment is described as follows: TAM Enzymatic Assay (HTRF), Tyro3. It is filed as biochemical. The settings on record: 0.366 nM Tyro3, 60 min. In general terms: In TR-FRET formats the signal depends on donor and acceptor labels being close together.
Another experiment addresses phosphor-Axl (Homo sapiens (Human), UniProt P30530). The experiment is described as follows: TAM Enzymatic Assay (HTRF), phosphor-Axl. Format: biochemical. Particulars: 5.1 nM autophosphorylated Axl, 60 min; read-out: Phos-Axl IC50.
The target in the next experiment is PI3Kδ (Homo sapiens (Human), UniProt O00329). Particulars: cited from earlier work.
Sequence of PI3Kδ (O00329 whole entry, species assumed): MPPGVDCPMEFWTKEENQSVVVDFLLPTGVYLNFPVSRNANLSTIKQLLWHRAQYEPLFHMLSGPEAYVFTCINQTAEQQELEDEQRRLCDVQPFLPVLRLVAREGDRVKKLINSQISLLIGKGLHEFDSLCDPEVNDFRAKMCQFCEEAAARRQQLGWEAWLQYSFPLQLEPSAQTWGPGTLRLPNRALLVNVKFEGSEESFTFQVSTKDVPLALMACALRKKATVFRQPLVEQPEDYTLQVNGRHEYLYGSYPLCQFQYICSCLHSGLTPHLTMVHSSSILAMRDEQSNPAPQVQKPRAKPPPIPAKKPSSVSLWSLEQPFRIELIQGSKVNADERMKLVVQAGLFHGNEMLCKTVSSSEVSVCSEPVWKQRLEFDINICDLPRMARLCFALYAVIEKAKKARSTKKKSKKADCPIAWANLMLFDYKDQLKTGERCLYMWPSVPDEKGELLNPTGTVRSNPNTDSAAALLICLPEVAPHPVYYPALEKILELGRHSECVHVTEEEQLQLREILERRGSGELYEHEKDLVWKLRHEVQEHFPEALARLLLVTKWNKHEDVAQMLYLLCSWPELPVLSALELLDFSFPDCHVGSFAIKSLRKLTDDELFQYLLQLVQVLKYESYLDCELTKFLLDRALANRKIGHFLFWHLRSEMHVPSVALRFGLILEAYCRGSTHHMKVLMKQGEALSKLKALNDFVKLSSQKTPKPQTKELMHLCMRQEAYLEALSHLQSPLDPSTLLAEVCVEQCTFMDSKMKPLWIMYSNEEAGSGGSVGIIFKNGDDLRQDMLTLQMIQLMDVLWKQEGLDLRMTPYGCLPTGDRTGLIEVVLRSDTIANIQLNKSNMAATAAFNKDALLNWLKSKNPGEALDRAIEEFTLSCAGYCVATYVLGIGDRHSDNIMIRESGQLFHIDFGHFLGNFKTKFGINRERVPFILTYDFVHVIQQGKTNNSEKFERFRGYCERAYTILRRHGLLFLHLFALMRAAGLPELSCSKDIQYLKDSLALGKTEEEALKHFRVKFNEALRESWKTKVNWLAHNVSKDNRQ
Sequence of PI3Kδ (P27986 whole entry partner, species assumed): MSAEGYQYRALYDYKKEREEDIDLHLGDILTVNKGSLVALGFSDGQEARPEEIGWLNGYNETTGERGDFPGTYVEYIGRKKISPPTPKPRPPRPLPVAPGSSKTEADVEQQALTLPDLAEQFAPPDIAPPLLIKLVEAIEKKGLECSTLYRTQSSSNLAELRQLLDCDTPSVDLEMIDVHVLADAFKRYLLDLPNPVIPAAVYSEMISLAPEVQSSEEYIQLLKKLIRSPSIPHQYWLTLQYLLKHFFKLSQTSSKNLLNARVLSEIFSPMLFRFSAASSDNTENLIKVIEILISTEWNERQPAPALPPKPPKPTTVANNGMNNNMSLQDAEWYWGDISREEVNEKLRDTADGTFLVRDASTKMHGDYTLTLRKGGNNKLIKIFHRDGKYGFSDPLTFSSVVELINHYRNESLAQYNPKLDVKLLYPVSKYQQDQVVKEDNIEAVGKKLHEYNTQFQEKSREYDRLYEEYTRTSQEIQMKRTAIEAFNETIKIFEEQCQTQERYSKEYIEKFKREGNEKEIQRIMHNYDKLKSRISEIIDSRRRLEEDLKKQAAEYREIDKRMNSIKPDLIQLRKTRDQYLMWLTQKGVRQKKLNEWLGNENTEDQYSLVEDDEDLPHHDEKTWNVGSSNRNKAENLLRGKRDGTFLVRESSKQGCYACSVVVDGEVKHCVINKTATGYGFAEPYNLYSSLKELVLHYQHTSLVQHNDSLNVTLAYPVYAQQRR
The next experiment deals with c-Mer (Homo sapiens (Human), UniProt Q12866). As to the kind of experiment: TAM Enzymatic Assay (HTRF), c-Mer. It is filed as biochemical. The settings on record: 0.0625 nM c-Mer, ATP-containing substrate solution, 60 min.
Sequence of c-Mer (Q12866 21-999): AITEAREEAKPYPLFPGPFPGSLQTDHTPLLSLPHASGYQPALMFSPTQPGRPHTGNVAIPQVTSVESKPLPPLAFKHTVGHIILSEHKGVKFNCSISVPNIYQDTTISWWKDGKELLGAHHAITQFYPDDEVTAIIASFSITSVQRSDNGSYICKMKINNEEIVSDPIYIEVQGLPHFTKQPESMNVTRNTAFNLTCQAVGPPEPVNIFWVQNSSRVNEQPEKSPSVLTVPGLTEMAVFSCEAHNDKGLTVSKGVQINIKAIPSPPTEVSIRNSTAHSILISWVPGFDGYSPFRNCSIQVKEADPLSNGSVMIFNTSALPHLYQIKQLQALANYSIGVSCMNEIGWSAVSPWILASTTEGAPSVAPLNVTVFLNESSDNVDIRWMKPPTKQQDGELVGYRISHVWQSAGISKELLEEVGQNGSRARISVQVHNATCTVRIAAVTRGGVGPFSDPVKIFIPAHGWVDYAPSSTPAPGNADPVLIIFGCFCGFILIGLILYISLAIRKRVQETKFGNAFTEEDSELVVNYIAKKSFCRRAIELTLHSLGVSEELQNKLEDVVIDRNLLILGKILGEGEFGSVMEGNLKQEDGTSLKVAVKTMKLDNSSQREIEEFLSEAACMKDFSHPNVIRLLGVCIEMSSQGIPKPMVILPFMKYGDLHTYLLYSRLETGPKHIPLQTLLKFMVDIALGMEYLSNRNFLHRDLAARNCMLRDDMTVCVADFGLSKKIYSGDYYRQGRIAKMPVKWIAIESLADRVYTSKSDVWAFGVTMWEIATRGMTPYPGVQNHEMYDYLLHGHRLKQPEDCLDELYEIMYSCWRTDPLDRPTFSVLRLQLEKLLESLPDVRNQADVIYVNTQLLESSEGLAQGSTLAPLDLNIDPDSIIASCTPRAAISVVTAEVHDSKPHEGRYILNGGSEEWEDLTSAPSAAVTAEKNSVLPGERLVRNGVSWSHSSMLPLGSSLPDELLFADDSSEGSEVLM

Structures are written as SMILES. pIC50: −log10 of the molar value.

A word on the pIC50: it is the IC50 on a negative log10 scale, so that one unit is a factor of ten.

Sequence of phosphor-Axl (P30530 26-894): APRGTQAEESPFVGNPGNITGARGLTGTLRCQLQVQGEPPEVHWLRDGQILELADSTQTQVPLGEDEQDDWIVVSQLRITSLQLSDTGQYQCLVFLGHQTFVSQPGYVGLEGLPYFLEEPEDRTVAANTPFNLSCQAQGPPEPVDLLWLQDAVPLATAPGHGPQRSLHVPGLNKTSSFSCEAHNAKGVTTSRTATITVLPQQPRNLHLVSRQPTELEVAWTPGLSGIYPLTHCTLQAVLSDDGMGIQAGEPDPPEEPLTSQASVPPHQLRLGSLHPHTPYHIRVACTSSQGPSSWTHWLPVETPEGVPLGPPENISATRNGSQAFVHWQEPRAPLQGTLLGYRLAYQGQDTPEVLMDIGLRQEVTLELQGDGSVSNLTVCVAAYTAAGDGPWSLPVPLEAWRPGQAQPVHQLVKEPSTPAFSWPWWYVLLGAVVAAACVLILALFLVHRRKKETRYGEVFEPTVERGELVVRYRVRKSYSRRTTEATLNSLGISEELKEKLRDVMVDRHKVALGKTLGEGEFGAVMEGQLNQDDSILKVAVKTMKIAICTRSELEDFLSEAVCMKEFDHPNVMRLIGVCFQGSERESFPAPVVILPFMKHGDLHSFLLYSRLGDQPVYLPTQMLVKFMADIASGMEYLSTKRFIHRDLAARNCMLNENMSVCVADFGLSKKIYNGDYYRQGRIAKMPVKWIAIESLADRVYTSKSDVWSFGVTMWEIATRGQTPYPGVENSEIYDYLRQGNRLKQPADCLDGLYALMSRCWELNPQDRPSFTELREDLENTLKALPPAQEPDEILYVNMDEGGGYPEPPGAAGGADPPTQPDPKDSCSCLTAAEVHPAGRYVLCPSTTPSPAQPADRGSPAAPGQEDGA
Sequence of Tyro3 (Q06418 41-890): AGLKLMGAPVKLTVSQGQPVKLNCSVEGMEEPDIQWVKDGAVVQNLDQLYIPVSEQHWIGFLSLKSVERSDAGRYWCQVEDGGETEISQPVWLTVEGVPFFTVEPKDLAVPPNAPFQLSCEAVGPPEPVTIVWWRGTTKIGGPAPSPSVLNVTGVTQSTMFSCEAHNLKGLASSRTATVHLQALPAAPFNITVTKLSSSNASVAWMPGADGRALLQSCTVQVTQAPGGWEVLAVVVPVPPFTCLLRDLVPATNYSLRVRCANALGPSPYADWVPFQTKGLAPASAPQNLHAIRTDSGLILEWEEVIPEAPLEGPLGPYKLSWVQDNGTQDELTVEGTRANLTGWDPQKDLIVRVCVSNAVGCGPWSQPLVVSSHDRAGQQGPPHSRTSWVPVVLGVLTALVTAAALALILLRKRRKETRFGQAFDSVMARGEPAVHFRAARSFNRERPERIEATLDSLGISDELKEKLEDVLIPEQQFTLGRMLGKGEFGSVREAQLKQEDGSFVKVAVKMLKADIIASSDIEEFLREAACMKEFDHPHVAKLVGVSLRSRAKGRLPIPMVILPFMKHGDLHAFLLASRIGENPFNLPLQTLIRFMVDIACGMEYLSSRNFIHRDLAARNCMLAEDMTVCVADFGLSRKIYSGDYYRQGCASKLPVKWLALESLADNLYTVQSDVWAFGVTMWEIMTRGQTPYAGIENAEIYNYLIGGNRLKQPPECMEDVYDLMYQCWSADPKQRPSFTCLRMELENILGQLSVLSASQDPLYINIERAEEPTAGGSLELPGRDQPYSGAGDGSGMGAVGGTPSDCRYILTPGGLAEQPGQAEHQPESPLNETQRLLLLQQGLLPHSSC
Protocol for Tyro3: The kinase assay buffer contained 50 mM HEPES, pH7.5, 10 mM MgCl2, 1 mM EGTA, 0.01% NP-40 and 2 mM DTT. 0.1 ul test compounds dissolved in DMSO were transferred from compound plates to white 384-well assay plates (Greiner [sequence] plates). […] 4 ul enzyme solution (or assay buffer for the enzyme blank) was added to the appropriate wells in each plate, and then 4 ul/well substrate solution was added to initiate the reaction. The plate was protected from light and incubated at room temperature for 60 min. […] The plate was incubated for 1 h at room temperature, and HTRF (homogenous time resolved fluorescence) signal was measured on a PHERAstar FS plate reader (BMG labtech). Percentage of inhibition was calculated for each concentration and IC50 value was generated from curve fitting with GraphPad Prism software.

In the case of `CCCCNc1ncc2c(-c3ccc(N4CCOCC4)c(F)c3)nc(C3CCC(O)CC3)n2n1` (single isomer, unassigned) [7 (1st peak), 4-[2-(Butylamino)-5-(3-fluoro-4-morpholin-4-ylphenyl)imidazo[5,1-f][1,2,4]triazin-7-yl]cyclohexanol], the pIC50 on Tyro3 is 6.00 to 6.30; at phosphor-Axl, 6.30 to 7.00.

Regarding `CCCCNc1ncc2c(-c3ccc(N4CCOCC4)c(F)c3)nc(C3CCC(O)CC3)n2n1` (single isomer, unassigned) [7 (2nd peak), 4-[2-(Butylamino)-5-(3-fluoro-4-morpholin-4-ylphenyl)imidazo[5,1-f][1,2,4]triazin-7-yl]cyclohexanol], the pIC50 on phosphor-Axl is less than 6.00.

With `CCOc1c(C(C)n2nc(C)c3c(N)ncnc32)cc(Cl)c(F)c1C1CNC(=O)C1` (single isomer, unassigned) [Compound 32c, 4-{3-[1-(4-amino-3-methyl-1H-pyrazolo[3,4-d]pyrimidin-1-yl)ethyl]-5-chloro-2-ethoxy-6-fluorophenyl}pyrrolidin-2-one], the negative-log IC50 (pIC50) on PI3Kδ is more than 7.30.

As to `CCCCNc1ncc2c(-c3ccc(CN4CCN(C)CC4)cc3)nc([C@H]3CC[C@H](O)CC3)n2n1` [1 (1st peak, trans-), trans-4-(2-(Butylamino)-5-{4-[(4-methylpiperazin-1-yl)methyl]phenyl}imidazo[5,1-f][1,2,4]triazin-7-yl)cyclohexanol], the pIC50 against c-Mer is not below 7.00; against Tyro3, 6.30 to 7.00; at phosphor-Axl, not below 7.00.

As to `CCCCNc1ncc2c(-c3ccc(CN4CCOCC4)cc3)nc([C@H]3CC[C@@H](O)CC3)n2n1` [2 (2nd peak, cis-), cis-4-{2-(Butylamino)-5-[4-(morpholin-4-ylmethyl)phenyl]imidazo[5,1-f][1,2,4]triazin-7-yl}cyclohexanol], the negative logarithm of the IC50 (pIC50) against c-Mer is not below 7.00; at Tyro3 it was 6.30 to 7.00; on phosphor-Axl, 6.30 to 7.00.

For `COc1c(C(C)n2nc(C)c3c(N)ncnc32)cc(Cl)c(C#N)c1C1CN(C[C@H](C)O)C1` (stereo partly drawn) [Compound 29, 4-[1-(4-amino-3-methyl-1H-pyrazolo[3,4-d]pyrimidin-1-yl)ethyl]-6-chloro-2-{1-[(2S)-2-hydroxypropyl]azetidin-3-yl}-3-methoxybenzonitrile], the pIC50 at PI3Kδ was more than 7.30.

Turning to `COc1c(C(C)n2nc(C)c3c(N)ncnc32)cc(Cl)c(C#N)c1C1CN(CCO)C1` (stereo not drawn) [Compound 30, 4-[1-(4-amino-3-methyl-1H-pyrazolo[3,4-d]pyrimidin-1-yl)ethyl]-6-chloro-2-[1-(2-hydroxyethyl)azetidin-3-yl]-3-methoxybenzonitrile], the negative-log IC50 (pIC50) at PI3Kδ was more than 7.30.
